Source: patent US11692227B2, “Method for screening for skin whitening agent by using SDF1 promoter region” (AJOU UNIVERSITY INDUSTRY-ACADEMIC COOPERATION FOUNDATION, priority 2018, dated 2023)

System: SDF1 promoter
Test: Screening of pigment regulators using SDF1 promoter (pGF1 reporter fibroblast cell line, Luciferase assay)
Assay type: cell-based
Conditions: fibroblasts infected with SDF1 promoter pGF1 vector virus; 1 ug TPA; 1 ug and 10 ug retinoic acid; 24 hours after treatment
Excerpt: In order to express the SDF1 promoter gene, the SDF1 promoter gene was inserted into pGF1-vector to construct the SDF1 promoter GFP vector. In order to produce the virus into which the constructed vector was inserted, a virus production system of lentivirus was used. PVSV-G (SystemBiosciences, USA) encoding the required structural protein, the pGF1 vector into which the SDF1 promoter gene was inserted, and pGag-pol were simultaneously co-transfected into HEK-293TN cells by a liposome method. After 6 hours, the medium was replaced with a new medium, cultured for 48 hours, and the medium containing the virus was harvested, and the harvested virus was used for fibroblasts infection. As for the infected fibroblasts, only cells infected by Puromycin were selected for the experiment.
In order to confirm the expression of the prepared SDF1 promoter, Luciferase assay, an experiment that can confirm the level of GFP, was conducted to observe the expression level.
Cells were cultured in 12 well plates in an amount of 1×10^3, and after 24 hours, 1 ug of TPA, 10 ng and 100 ng of EGF, and 1 ug and 10 ug of retinoic acid were treated, respectively. 24 hours after treatment with the drug, the activity of GFP was measured through Luciferase assay.

## CCCCCCCCCCCCCC(=O)O[C@@H]1[C@@H](C)[C@@]2(O)[C@@H](C=C(CO)C[C@]3(O)C(=O)C(C)=C[C@@H]23)[C@@H]2C(C)(C)[C@]12OC(C)=O [TPA]
  SDF1 promoter activity (activity of GFP measured through Luciferase assay): decreased
